This is an account of results in US20180125774A1, “Method and Composition for Visible Light Dryable Nail Coatings” (priority 2016, published 2018).

Type in all cases: physicochemical
Series [1] in a line: Solubility of visible light photo-initiator A in solvents. As to conditions: 25° C. From the text:
The following table 2 lists the solubility of the visible light photo-initiator A of the first preferred embodiment of the visible light dryable nail coating according to this present invention.

The nature of series [2]: Stability (thermal, light, oxidation in air) as described. From the text:
Any one of several photo-initiators is used in the present invention, wherein the photo-initiators can be either component (A): visible light photo-initiator A or component (B): visible light photo-initiator B. Visible light photo-initiator A is, but not limited to, Bis (η5-2,4-cylcopentadian-1-yl)-bis (2,6-di-fluoro-3-(1H-pyrrol-1-yl) phenyl) titanium. […] More specifically, visible light photo-initiator A is particularly suitable for the curing of photopolymers for imaging or information storage applications where extremely high photosensitivity is required.
It is worth to mention that visible light photo-initiator A is sensitive to visible light and any exposure to sunlight must be avoided. And, the visible light photo-initiator A must be stored in low temperature, which is below 25° C., and dry environment. […] Therefore, opened drums are required to close after use to protect the product against light.
Accordingly, visible light photo-initiator B is, but not limited to, 4,4′-Bis (diethylamino) benzophenone. Visible light photo-initiator B is both an aromatic ketone and a tertiary amine, and acts both as a photosensitizer and an amine synergist.

The nature of series [3]: Solubility of visible light photo-initiator B in solvents. As to conditions: 20° C. From the text: The following table 5 lists the solubility of the visible light photo-initiator B of the first preferred embodiment of the visible light dryable nail coating according to this present invention.
A short description of series [4]: Specification solubility test in acetone. From the text: The following table 4 lists the specification of the visible light photo-initiator B of the first preferred embodiment of the visible light dryable nail coating according to this present invention.

With `Fc1ccc(-n2cccc2)c(F)[c]1[Ti+2][c]1c(F)ccc(-n2cccc2)c1F.c1cc[cH-]c1.c1cc[cH-]c1` [visible light photo-initiator A, Bis (η5-2,4-cylcopentadian-1-yl)-bis (2,6-di-fluoro-3-(1H-pyrrol-1-yl)phenyl) titanium], the Solubility in series [1] (Acetone) is recorded as 30 g in 100 ml solvent; in series [1] (Butyl Acetate), 2 g in 100 ml solvent; in series [1] (HDDA) it was 10 g in 100 ml solvent; in series [1] (MEK), 30 g in 100 ml solvent; in series [1] (Toluene), 10 g in 100 ml solvent; in series [1] (Water), below 0.5 g in 100 ml solvent. Also, the Thermal stability entry in series [2] is listed as “good thermal stability”. In series [2] (dissolved in a solvent or a formulation, daylight and standard fluorescence bulbs), the Light sensitivity entry was “extremely sensitive to daylight and light from standard fluorescence bulbs”.
Regarding `CCN(CC)c1ccc(C(=O)c2ccc(N(CC)CC)cc2)cc1` [visible light photo-initiator B, 4,4′-Bis (diethylamino) benzophenone], the Solubility in series [3] (Acetone) is on record as 30 % w/w; in series [3] (Butyl Acetate), 30 % w/w; in series [3] (Ethyl acetate), 24 % w/w; in series [3] (Methanol), 7.0 % w/w; in series [3] (Toluene) it was 25 % w/w; in series [3] (Water) it was below 0.01 % w/w. Moreover, the “Solubility (3 g/10 mL Acetone)” value in series [4] is listed as “Clear solution”. In addition, the Resistance to oxidation entry in series [2] (exposure in air, versus most commercially available EMK) is on record as “more resistant to oxidation by exposure in air than most commercially available EMK”.
